According to BigSolDB 2.1:

O=C(O)c1cc([N+](=O)[O-])cc([N+](=O)[O-])c1
solubility (mole fraction)
Conditions	283.15 K	288.15 K	293.15 K	298.15 K	303.15 K	308.15 K	313.15 K	318.15 K	323.15 K
in acetonitrile	0.00815	0.00958	0.011	0.0129	0.0148	0.0162	0.019	0.0218	0.0236
in ethanol	0.0264	0.0306	0.0346	0.0396	0.0456	0.0524	0.0593	0.07	0.078
in ethyl acetate	0.0349	0.0373	0.0399	0.0426	0.0458	0.0495	0.0533	0.0574	0.0627
in isobutanol	0.00648	0.00862	0.0129	0.0171	0.0223	0.0265	0.031	0.0376	0.0466
in isopropanol	0.014	0.0167	0.0194	0.0255	0.0315	0.0381	0.0459	0.0548	0.0661
in methanol	0.0321	0.0399	0.0454	0.0502	0.059	0.0669	0.0767	0.0843	0.0943
in methyl acetate	0.0378	0.0413	0.0456	0.0498	0.054	0.0582	0.0623	0.0664	0.0713
in n-butanol	0.0138	0.0163	0.0214	0.0273	0.0329	0.0386	0.0458	0.0537	0.0622
in n-butyl acetate	0.0257	0.0262	0.0281	0.0327	0.0341	0.04	0.0451	0.0504	0.0562
in n-pentanol	0.0153	0.0173	0.0223	0.0273	0.0321	0.0379	0.0456	0.0531	0.0604
in n-propanol	0.0173	0.019	0.0224	0.0274	0.0332	0.0397	0.0457	0.0549	0.065
in n-propyl acetate	0.0281	0.0296	0.0318	0.0354	0.04	0.0443	0.0494	0.0548	0.0609
in sec-butanol	0.0139	0.0159	0.0201	0.0263	0.0324	0.0414	0.0503	0.0628	0.0777
